Assay results as given in patent US7348402B2, “Antimicrobial peptide, its analogs and antimicrobial composition comprising them” (priority 2002, dated 2008).
No end group written: not given here.

Experiments:
Assay type in all cases: cell-based
[1] = test system: Candida albicans (ATCC 10231); conditions: ATCC 10231, 12 h
Source text: (§1) The microorganisms used in the present invention include Gram-positive bacteria such as Bacillus subtilis (ATCC 62037), Staphylococcus aureus (ATCC 15752) and Streptococcus mutans (ATCC 25175), Gram-negative bacteria such as Escherichia coli (ATCC 27325), Salmonella enteritidis (ATCC 15277) and Pseudomonas putida (ATCC 17426) and fungi such as Candida albicans (ATCC 10231), Saccharomyces cerevisiae (ATCC 44774) and Cryptococcus neoformans (ATCC 34881), obtained from American Type Culture Collection (ATCC).
(§2) The antimicrobial activity of the peptides prepared in Example 1 was determined against microorganisms by 96-well microdilution minimal inhibitory concentration assay. After overnight culturing the bacteria and fungi in trypticase soy broth (TSB) and Saboraud (SAB) at 37° C. and 30° C., respectively, they were inoculated in new media and cultured for 2 hours to exponential growth phase. After diluting the microorganisms to 10^5 per 1 ml, 190 μl was inoculated in each 96-well plate, and 10 μl of serially diluted peptides were added in each well.

[2] = test system: Saccharomyces cerevisiae (ATCC 44774); conditions: ATCC 44774, 12 h
Source text: as §1, §2

[3] = test system: Cryptococcus neoformans (ATCC 34881); conditions: ATCC 34881, 12 h
Source text: as §1, §2

[4] = test system: Staphylococcus aureus (ATCC 15752); conditions: ATCC 15752, 12 h
Source text: as §1, §2

[5] = test system: Salmonella enteritidis (ATCC 15277); conditions: ATCC 15277, 12 h
Source text: as §1, §2

[6] = test system: Escherichia coli (ATCC 27325); conditions: ATCC 27325, 12 h
Source text: as §1, §2

[7] = test system: Pseudomonas putida (ATCC 17426); conditions: ATCC 17426, 12 h
Source text: as §1, §2

[8] = test system: Bacillus subtilis (ATCC 62037); conditions: ATCC 62037, 12 h
Source text: as §1, §2

[9] = test system: Streptococcus mutans (ATCC 25175); conditions: ATCC 25175, 12 h
Source text: as §1, §2

Row | Substance | Minimum Inhibitory Concentration [1] [µg/mL] | Minimum Inhibitory Concentration [2] [µg/mL] | Minimum Inhibitory Concentration [3] [µg/mL] | Minimum Inhibitory Concentration [4] [µg/mL] | Minimum Inhibitory Concentration [5] [µg/mL] | Minimum Inhibitory Concentration [6] [µg/mL] | Minimum Inhibitory Concentration [7] [µg/mL] | Minimum Inhibitory Concentration [8] [µg/mL] | Minimum Inhibitory Concentration [9] [µg/mL]
1 | KLLKKLLKKLLKNWPIGKLLK [compound 55] | 1 | 2 | 1 | 1 | 1 | 2 | 1 | 1 | 2
2 | KLLKKLLKKLLKQWPIGKLLK [compound 38] | 2 | 2 | 1 | 1 | 1 | 2 | 1 | 1 | 2
3 | KLLKNWPIGKLLKKLLKKLLK [compound 21] | 2 | 1 | 1 | 1 | 2 | 1 | 1 | 1 | 2
4 | KLLKQWPIGKLLKKLLKKLLK [compound 4] | 1 | 2 | 1 | 1 | 1 | 1 | 1 | 2 | 1
5 | KLLRKLLRKLLRNWPIGKLLR [compound 63] | 1 | 2 | 1 | 1 | 2 | 1 | 1 | 1 | 2
6 | KLLRNWPIGKLLRKLLRKLLR [compound 29] | 1 | 2 | 1 | 1 | 1 | 1 | 1 | 1 | 2
7 | KLVKKLVKKLVKQWPIGKLVK [compound 42] | 1 | 1 | 1 | 1 | 1 | 1 | 1 | 1 | 2
8 | KLVKQWPIGKLVKKLVKKLVK [compound 8] | 2 | 2 | 1 | 1 | 1 | 1 | 1 | 1 | 2
9 | KLVRKLVRKLVRNFPVGKLVR [compound 68] | 1 | 2 | 1 | 1 | 1 | 1 | 1 | 1 | 2
10 | KLVRKLVRKLVRQFPVGKLVR [compound 51] | 1 | 2 | 1 | 1 | 2 | 1 | 1 | 1 | 1
11 | KLVRKLVRKLVRQWPIGKLVR [compound 50] | 1 | 2 | 1 | 1 | 2 | 1 | 1 | 1 | 1
12 | KLVRNFPVGKLVRKLVRKLVR [compound 34] | 1 | 1 | 1 | 1 | 1 | 1 | 1 | 1 | 2
13 | KLVRQFPVGKLVRKLVRKLVR [compound 17] | 1 | 1 | 1 | 1 | 1 | 1 | 1 | 2 | 2
14 | KLVRQWPIGKLVRKLVRKLVR [compound 16] | 1 | 1 | 1 | 1 | 1 | 1 | 1 | 2 | 2
15 | KLVRQWPIGKLVRKLVRKLVR-NH2 [compound 69] | 1 | 2 | 1 | 1 | 2 | 1 | 1 | 1 | 1
16 | KVLKKVLKKVLKNWPIGKVLK [compound 57] | 1 | 2 | 1 | 1 | 1 | 2 | 1 | 1 | 2
17 | KVLKNWPIGKVLKKVLKKVLK [compound 23] | 1 | 1 | 1 | 1 | 2 | 1 | 1 | 1 | 2
